Laboratory results: US4642309A, “Indolin-2-one derivatives preparation thereof and intermediates for the preparation thereof” (Boehringer Mannheim GmbH, priority 1983, dated 1987)
Like-named read-outs stand apart in the source and are kept apart here.

Experiments:
[1] = test system: CSE reflex (arterial blood pressure); test: Vasodilating activity: weakening of the carotid occlusion (CSE) reflex blood pressure rise in anesthetized rabbits; format: in vivo, rabbit; settings: for ED (30 mm Hg): Oryctolagus cuniculus, iv; for BQ (ID50 fcor / ED-30 mm Hg): ratio of beta-blocking ID50 to vasodilating ED-30
Experimental: Rabbits were anesthetized with 26%-urethane 5 ml/kg i.v. For a continual measurement of the arterial blood pressure a catheter was implanted into the Arteria femoralis. The blood pressure was measured by means of an electromechanical pressure transducer (Statham P 23/Db). The impulses were registered on a direct printer and after calibration evaluated with a mercury manometer. After determining the starting value, both carotid arteries (Aa. carotides) were occluded for 2 min and thereby the blood pressure temporarily raised (Carotis-Sinus-Relief Reflex-CSE). Following that, the substances were injected in increasing doses and 8 min. later the CSE reflex induced again. In periods of 15 min each, in logarithmically rising dosage (factor 2), the test substance was injected again and the CSE value induced again. Substances which under these conditions weaken the rise of the blood pressure under CSE can be regarded as vasodilating. To estimate the blood pressure lowering quality, the dose was calculated which weakens the CSE reflex by 30 mm Hg (ED-30 mm Hg).

[2] = test system: cardiac β-receptors (beta 1); test: Beta-receptor blocking activity: inhibition of isoprenaline (1 mcg/kg i.v.) induced heart rate increase (beta 1-blockage) in rabbits; format: in vivo, rabbit; settings: for β1-Blockade ID30 fcor / β1-Blockade ID50 fcor: i.v., rabbits; for β1-Blockade ID30 fcor: 30% inhibition of isoprenaline effect on heart rate; for β1-Blockade ID50 fcor: 50% inhibition of isoprenaline effect on heart rate
Experimental: Rabbits were fixed in wooden cages and the blood pressure derived using a catheter placed in the lateral ear artery (details as under 2.). From the blood pressure pulsations, the heart rate was digitally read using an integrator. The beta-receptor blocking quality was determined by measuring inhibitory action against 1 mcg/kg i.v. isoprenaline.

[3] = Tolerability of i.v. doses; settings: in vivo, iv
[4] = read-out: Vasodilatation CSE ED-30
[5] = dose weakening the CSE reflex by 30 mm Hg, anesthetized rabbits, read-out: Vasodilatation CSE ED-30
[6] = statement in text on reference substances, read-out: ED-30 (vasodilating quality)

SMILES | vasodilating quality (in words) [1] | ED (30 mm Hg) ([1]; read-out: ED-30 (vasodilating quality)) [mg/kg] | ED (30 mm Hg) [1, 4] [mg/kg] | BQ (ID50 fcor / ED-30 mm Hg) [1] | beta-blocking activity (in words) [2] | β1-Blockade ID30 fcor [2] | MTD ([3]; not tolerated at all, read-out: dose above which not tolerated at all) [mg/kg] | MTD ([3]; poorly tolerated, read-out: dose above which poorly tolerated) [mg/kg] | ED (30 mm Hg) [1, 5] [mg/kg] | β1-Blockade ID50 fcor [2] | ED (30 mm Hg) [1, 6] [mg/kg]
CC(C)NCC(O)COc1cccc2ccccc12 (stereo not drawn) [Propranolol, 1-(isopropylamino)-3-(1-naphthyloxy)-2-propanol, reference compound] | do not have or at least do not have any relevantly vasodilating quality | > 9 | 30 | 0,01 | potent beta-blockers | 126 µg/kg | > 30 | > 10 |  |  | 
CC(C)NCC(O)COc1cccc2c1C(=Cc1ccccc1O)C(=O)N2 (stereo not drawn) [Example 1a, 4-(2-hydroxy-3-isopropylaminopropoxy)-3-(2-hydroxybenzylidene)-indolin-2-one] |  |  |  | 0,12 |  | 98 µg/kg |  |  | 2.71 | 317 µg/kg | 
CC(C)NCC(O)COc1cccc2c1CC(=O)N2 (stereo not drawn) [BM 14.171, 4-(2-hydroxy-3-isopropylaminopropoxy)oxindol, reference compound] | do not have or at least do not have any relevantly vasodilating quality |  |  | 0,0004 | potent beta-blockers | 1,2 mcg/kg |  |  | 11.6 | 4,3 mcg/kg | > 9
COc1ccc(CCNCC(O)COc2cccc3c2CC(=O)N3)cc1 (stereo not drawn) [BM 12.946, 4-<2-hydroxy-3-[2-(4-methoxyphenyl)ethylamino]propoxy>oxindol, reference compound] | do not have or at least do not have any relevantly vasodilating quality |  |  | 0,02 | potent beta-blockers | 46 µg/kg |  |  | 9.13 | 188 µg/kg | > 9
O=C1Nc2cccc(OCC(O)CNCCOc3ccc(O)cc3)c2C1Cc1ccccc1O (stereo not drawn) [Example 7d, 4-{2-hydroxy-3-[2-(4-hydroxyphenoxy)-ethylamino]-propoxy}-3-(2-hydroxybenzyl)-indolin-2-one cyclohexylsulphaminate] |  |  |  | 0,09 |  | 27 µg/kg |  |  | 0.97 | 85 µg/kg | 
CSc1ccc(C=C2C(=O)Nc3cccc(OCC(O)CNC(C)C)c32)c(O)c1 (stereo not drawn) [Example 1d, 4-(2-hydroxy-3-isopropylaminopropoxy)-3-(2-hydroxy-4-methylthiobenzylidene)-indolin-2-one] |  |  |  | 0,03 |  | 21 µg/kg |  |  | 1.48 | 46 µg/kg | 
O=C(O)/C=C/C(=O)O.O=C1Nc2cccc(OCC(O)CNCCOc3ccccc3)c2C1Cc1ccn[nH]1 (stereo not drawn) [Example 7f, 4-[2-hydroxy-3-(2-phenoxyethylamino)-propoxy]-3-(pyrazol-5-yl-methyl)-indolin-2-one fumarate] |  |  |  | 2,37 |  | 334 µg/kg |  |  | 0.43 | 1020 µg/kg | 
O=C1Nc2cccc(OCC(O)CNCCOc3ccccc3)c2C1=Cc1ccn[nH]1 (stereo not drawn) [Example 1u, 4-[2-hydroxy-3-(2-phenoxyethylamino)-propoxy]-3-(pyrazol-5-yl)-methyleneindolin-2-one] |  |  |  | 0,18 |  | 9,9 mcg/kg |  |  | 0.331 | 58 µg/kg | 
O=C(O)c1ccccc1.O=C1Nc2cccc(OCC(O)CNCCOc3ccc(O)cc3)c2C1=Cc1ccccc1O (stereo not drawn) [Example 1p, 4-{2-hydroxy-3-[2-(4-hydroxyphenoxy)-ethylamino]-propoxy}-3-(2-hydroxybenzylidene)-indolin-2-one benzoate] |  |  | 0.75 | 1,24 |  | 192 µg/kg |  |  |  | 932 µg/kg | 
O=C(O)/C=C/C(=O)O.O=C1Nc2cccc(OCC(O)CNCCOc3ccc(O)cc3)c2C1Cc1ccn[nH]1 (stereo not drawn) [Example 7e, 4-{2-hydroxy-3-[2-(4-hydroxyphenoxy)-ethylamino]-propoxy}-3-(pyrazol-5-yl-methyl)-indolin-2-one fumarate] |  |  |  | 0,47 |  | 65 µg/kg |  |  | 0.54 | 254 µg/kg | 
O=C1Nc2cccc(OCC(O)CNCCOc3ccc(O)cc3)c2C1=Cc1ccccc1C(=O)O (stereo not drawn) [Example 1r, 4-{2-hydroxy-3-[2-(4-hydroxyphenoxy)-ethylamino]-propoxy}-3-(2-carboxybenzylidene)-indolin-2-one] |  |  |  | 0,41 |  | 205 µg/kg |  |  | 2.03 | 823 µg/kg | 
